Results published in patent publication US20220274980A1, “PHARMACOLOGICAL INHIBITORS OF THE ENL YEATS DOMAIN” (priority 2019, published 2022).
Read-outs that look alike come from different tables or passages of the source.

Tests used:
[1] = biological target: T1, ENL YEATS domain (association with H3K27cr) (Homo sapiens, UniProt Q03111); assay: biochemical
T1 sequence (Q03111 1-148): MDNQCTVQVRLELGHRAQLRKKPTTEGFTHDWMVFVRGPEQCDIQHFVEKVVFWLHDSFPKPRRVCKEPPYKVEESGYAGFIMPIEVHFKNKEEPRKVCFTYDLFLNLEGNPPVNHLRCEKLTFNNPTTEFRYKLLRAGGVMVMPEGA
Protocol: (§1) Protein Production. Double stranded DNA fragments encoding the protein sequence of ENL YEATS(1-148) were synthesized (IDT DNA) for assembly-based cloning into a modified expression vector backbone derived from pET21a (Novagen). The protein was fused to a StrepII-SUMO and 6×His tag on the amino and carboxy terminus, respectively. Transformed BL21(DE3) cells (New England Biolabs) were grown at 37° C. in 2×YT growth medium to an OD600 of 0.6. Protein expression was induced at 25° C. with the addition of isopropyl-β-D-thiogalactopyranoside (IPTG) to a final concentration of 0.4 mM. The culture was harvested by centrifugation following a 20-hour incubation and subsequently purified by immobilized metal affinity chromatography. Cells were resuspended 50 mM Tris-HCl pH 8.0, 300 mM NaCl, 10% glycerol, 10 mM imidazole, 1 mM DTT containing Complete EDTA-free protease inhibitor (Roche) and lysed by two passes through a MicroFluidizer at 10,000 psi. The lysate was clarified by centrifugation at 16,000 rpm for 30 minutes at 4° C. The supernatant was passed over NiNTA agarose (QIAGEN) and the protein was eluted in 50 mM Tris-HCl pH 8.0, 300 mM NaCl, 10% glycerol, 250 mM imidazole, 1 mM DTT. Fractions containing the ENL YEATS(1-148) fusion protein were buffer exchanged into 100 mM Tris-HCl pH 8.0, 150 mM NaCl, 1 mM EDTA, 1 mM DTT using PD10 desalting columns (GE Life Sciences). Ulp1 protease was added to cleave the StrepII-SUMO fusion and the reaction mixture was incubated overnight at 4° C. The cleavage reaction mixture was loaded onto a StrepTrap column (GE Life Sciences) and ENL YEATS(1-148) was recovered in the flow through. BRD4 BD1 was purchased from Cayman (Cat. No. 11720).
(§2) Homogenous time-resolved FRET (HTRF) histone-binding assays. Both HTRF assays were performed by combining recombinant protein and synthetic histone peptide in assay buffer (25 mM HEPES pH 7, 20 mM NaCl, 0.2% Pluronic F-127, and 0.05% BSA) with 1 nM LanthaScreen Eu-anti-His Tag antibody (ThermoFisher, Cat. No, PV5597) and 8.9 nM SureLight allophycocyanin-streptavidin (Perkin Elmer, APC-SA, Cat. No. CR130-100). ENL YEATS was used at 5 nM and BRD4 BD1 was used at 10 nM. ENL assays were performed with H3(13-32)K27cr (13.3 and 100 nM, respectively), custom synthesized at ABclonal (N-terminal biotin, C-terminal amide); BRD4 BD1 assay was performed with 13.3 nM tetra-acetylated H4 (BioVision, Cat. No. 7144-01). Once all reagents were combined (with or without peptide), 10 μL was dispensed per well into black 384-well low-volume plates (Corning, Cat. No. 3821) and drug was added by pin tool transfer (Biomek FX). Assays were incubated for 2 or more hours before measurement of HTRF signal on a PHERAstar plate reader (BMG Labtech; simultaneous dual emission; excitation=337 nm, emission 1=665 nm, emission 2=620 nm). HTRF signal (ratio of emission 1 to emission 2) from vehicle-treated wells (maximum signal) and no-peptide-control wells (minimum signal) were used to calculate percent inhibition for drug-treated wells.

BRD4 bromodomain 1 (BD1) = biological target: T2, BRD4 bromodomain 1 (BD1) (Homo sapiens, UniProt O60885); assay: BRD4 (BD1)-H4 tetra-acetylated HTRF histone-binding assay
T2 construct: Selectivity against BRD4 bromodomain 1 (BD1), measured by HTRF; His; purchased Cayman 11720
Protocol: as §1, §2

[2] = ENL (YEATS)-H3K27cr HTRF (IC50, μM), Table 1
[3] = ENL (YEATS)-H3K27cr HTRF (IC50, μM), Table 2
[4] = read-out: ENL (YEATS)-H3K27cr HTRF (IC50), Table 1

| Compound | IC50 [1, 2] [µM] | IC50 [1, 3] [µM] | IC50 (BRD4 bromodomain 1 (BD1); Table 1) [µM] | IC50 (BRD4 bromodomain 1 (BD1); Table 2) [µM] | IC50 ([1]; read-out: ENL (YEATS)-H3K27cr HTRF (IC50), Table 2) [µM] | IC50 [1, 4] [µM] |
| --- | --- | --- | --- | --- | --- | --- |
| CC(C)NC(=O)c1ccc2nc(-c3cccc(NS(=O)(=O)NCCCCCCC(=O)O)c3)cn2c1 [Compound 61] | 0.36 | 0.36 | > 50 | > 50 |  |  |
| CC(C)NC(=O)c1ccc2nc(-c3cccc(NS(=O)(=O)NCCCN4CCCC4)c3)cn2c1 [Compound 64] | 0.34 | 0.34 | > 50 | > 50 |  |  |
| CC(C)NC(=O)c1ccc2nc(-c3ccc(N=S(=O)(F)F)cc3)cn2c1 [Compound 41, (4-(6-(isopropylcarbamoyl)imidazo[1,2-a]pyridin-2-yl)phenyl)sulfurimidoyl difluoride] |  |  | > 50 | > 50 | 13 |  |
| CC(C)NC(=O)c1ccc2nc(-c3cccc([N+](=O)[O-])c3)cn2c1 [Compound 36] | 3.7 | 3.7 | > 50 | > 50 |  |  |
| CC(C)NC(=O)c1ccc2nc(-c3cccc(NS(=O)(=O)NCCCCCC#N)c3)cn2c1 [Compound 59] | 0.55 | 0.55 | > 50 | > 50 |  |  |
| CC(C)NC(=O)c1ccc2nc(-c3cccc(NS(=O)(=O)NCc4ccc(F)cc4)c3)cn2c1 [Compound 51] | 1.02 | 1.02 | > 50 | > 50 |  |  |
| CC(C)NC(=O)c1ccc2nc(-c3cccc(N=S(=O)(F)N4CCC[C@@H]4C(=O)O)c3)cn2c1 (stereo partly drawn) [Compound 68] | 0.61 | 0.61 | > 50 | > 50 |  |  |
| COc1ccc(CNS(=O)(=O)Nc2cccc(-c3cn4cc(C(=O)NC(C)C)ccc4n3)c2)c(OC)c1 [Compound 50] | 0.52 | 0.52 | > 50 | > 50 |  |  |
| CC(C)NC(=O)c1ccc2nc(-c3cccc(NS(=O)(=O)NCCCN4CCOCC4)c3)cn2c1 [Compound 45] | 0.55 | 0.55 | > 50 | > 50 |  |  |
| CC(C)NC(=O)c1ccc2nc(-c3cccc(NS(=O)(=O)NCCc4ccc(S(N)(=O)=O)cc4)c3)cn2c1 [Compound 48] | 0.51 | 0.51 | > 50 | > 50 |  |  |
| CCc1ccc(-c2cn3cc(C(=O)NC4CC4)ccc3n2)cc1 [Compound 28] | 5 | 5 |  |  |  |  |
| CC(C)NC(=O)c1ccc2nc(-c3cccc(NS(=O)(=O)NCCc4cccs4)c3)cn2c1 [Compound 49] | 1.36 | 1.36 | > 50 | > 50 |  |  |
| CC(NC(=O)c1ccc2nc(-c3ccccc3)cn2c1)c1ccccn1 (stereo not drawn) [Compound 30] | 6 | 6 |  |  |  |  |
| O=C(NC1C2CC1C2)c1ccc2nc(-c3ccccc3)cn2c1 (stereo not drawn) [Compound 125] |  |  |  |  |  | > 50 |
| CC(C)NC(=O)c1ccc2nc(-c3cccc(NS(=O)(=O)NC[C@H]4CC[C@H](C(=O)O)CC4)c3)cn2c1 [Compound 65] | 0.32 | 0.32 | > 50 | > 50 |  |  |
| CC(C)NC(=O)c1ccc2nc(-c3cccc(NS(=O)(=O)NCCc4ccc(N)cc4)c3)cn2c1 [Compound 58] | 0.32 | 0.32 | > 50 | > 50 |  |  |
| CC(C)NC(=O)c1ccc2nc(-c3cccc(N)c3)cn2c1 [Compound 38] | 10.7 | 10.7 | > 50 | > 50 |  |  |
| CC(C)NC(=O)c1ccc2nc(-c3cccc(NS(=O)(=O)NCCCCCCCC(=O)O)c3)cn2c1 [Compound 63] | 0.46 | 0.46 | > 50 | > 50 |  |  |
| CC(C)NC(=O)c1ccc2nc(-c3ccccc3C#N)cn2c1 [Compound 89] | 16.7 | 16.7 |  |  |  |  |
| CC(C)NC(=O)c1ccc2nc(-c3cccc(NS(=O)(=O)NCCC(N)=O)c3)cn2c1 [Compound 56] | 0.52 | 0.52 | > 50 | > 50 |  |  |

| Compound | IC50 [1, 2] [µM] | IC50 [1, 3] [µM] | IC50 (BRD4 bromodomain 1 (BD1); Table 1) [µM] | IC50 (BRD4 bromodomain 1 (BD1); Table 2) [µM] | IC50 ([1]; read-out: ENL (YEATS)-H3K27cr HTRF (IC50), Table 2) [µM] | IC50 [1, 4] [µM] |
| --- | --- | --- | --- | --- | --- | --- |
| COC(=O)[C@@H](Cc1c[nH]c2ccccc12)NS(=O)(=O)Nc1cccc(-c2cn3cc(C(=O)NC(C)C)ccc3n2)c1 [Compound 54] | 0.87 | 0.87 | > 50 | > 50 |  |  |
| CC(C)NC(=O)c1ccc2nc(-c3cccc(NS(=O)(=O)NCCC(=O)O)c3)cn2c1 [Compound 66] | 0.63 | 0.63 | > 50 | > 50 |  |  |
| CC(C)NC(=O)c1ccc2nc(-c3ccccc3)cn2c1 [Compound 1] | 4 | 4 | > 50 | > 50 |  |  |
| Cc1ccc(-c2cn3cc(C(=O)NC(C)c4cccnc4)ccc3n2)cc1 (stereo not drawn) [Compound 35] | 10 | 10 |  |  |  |  |
| CC(C)NC(=O)c1ccc2nc(-c3cccc(NS(=O)(=O)NCCCCO)c3)cn2c1 [Compound 62] | 0.3 | 0.3 | > 50 | > 50 |  |  |
| CC(C)NC(=O)c1ccc2nc(-c3cccc(N=S(=O)(F)F)c3)cn2c1 [Compound 40, (3-(6-(isopropylcarbamoyl)imidazo[1,2-a]pyridin-2-yl)phenyl)sulfurimidoyl difluoride] |  |  | > 50 | > 50 |  | 3.6 |
| CC(C)NC(=O)c1ccc2nc(-c3cccc(NS(=O)(=O)NCCCCO)c3)cn2c1 [Compound 43] | 0.47 | 0.47 |  |  |  |  |
| CC(C)NC(=O)c1ccc2nc(-c3cccc(NS(=O)(=O)NCCCO)c3)cn2c1 [Compound 44] | 0.56 | 0.56 | > 50 | > 50 |  |  |
| Cc1cc(-c2cn3cc(C(=O)NC(C)C)ccc3n2)ccn1 [Compound 88] | 7.05 | 7.05 |  |  |  |  |
| CC(C)NC(=O)c1ccc2nc(-c3ccc([N+](=O)[O-])cc3)cn2c1 [Compound 37] | 2.8 | 2.8 | > 50 | > 50 |  |  |
| CC(C)NC(=O)c1ccc2nc(-c3cccc(NS(=O)(=O)NCCCC(=O)O)c3)cn2c1 [Compound 60] | 0.69 | 0.69 | > 50 | > 50 |  |  |
| O=C(NC1CCC(O)CC1)c1ccc2nc(-c3ccccc3)cn2c1 (stereo not drawn) [Compound 31] | 7 | 7 |  |  |  |  |
| CNS(=O)(=O)Nc1cccc(-c2cn3cc(C(=O)NC(C)C)ccc3n2)c1 [Compound 52] | 0.39 | 0.39 | > 50 | > 50 |  |  |
| O=C(NC1CCC(O)CC1)c1ccc2nc(-c3ccc(F)cc3)cn2c1 (stereo not drawn) [Compound 32] | 7 | 7 |  |  |  |  |
| CC(C)NC(=O)c1ccc2nc(Cn3ccnc3)cn2c1 [Compound 90] | 26.6 | 26.6 |  |  |  |  |
| O=C(NCC1CC1)c1ccc2nc(-c3ccccc3)cn2c1 [Compound 29] | 6 | 6 |  |  |  |  |
| CC(C)NC(=O)c1ccc2nc(-c3cccc(NS(=O)(=O)NCCO)c3)cn2c1 [Compound 57] | 0.43 | 0.43 | > 50 | > 50 |  |  |
| O=C(NC1CC1)c1ccc2nc(-c3ccccc3)cn2c1 [Compound 33] | 9 | 9 |  |  |  |  |
| CC(C)NC(=O)c1ccc2nc(-c3ccccn3)cn2c1 [Compound 91] | 14.8 | 14.8 |  |  |  |  |
| CC(C)NC(=O)c1ccc2nc(-c3ccc(CN)cc3)cn2c1 [Compound 92] | 3.72 | 3.72 |  |  |  |  |
